Source: patent publication US12415819B2, “Cu- and Ni-catalyzed decarboxylative borylation reactions” (The Scripps Research Institute, priority 2017, dated 2025)
Where “and” joins values, the source holds several entries; their conditions need not be identical. Equal entries are not always repeated. Where two headings read alike, the source gives them in different places.

Tests used:
[1] = target: T1, human neutrophil elastase (Homo sapiens (Human), UniProt P08246); assay: Time dependence of elastase inhibition; format: biochemical
T1 sequence (P08246 30-247): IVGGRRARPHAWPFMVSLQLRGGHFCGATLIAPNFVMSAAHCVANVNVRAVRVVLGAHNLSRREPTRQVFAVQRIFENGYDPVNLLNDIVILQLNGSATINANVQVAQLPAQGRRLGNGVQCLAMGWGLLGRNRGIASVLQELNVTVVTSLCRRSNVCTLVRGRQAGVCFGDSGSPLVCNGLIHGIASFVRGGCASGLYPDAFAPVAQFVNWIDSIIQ
Description: The procedure for the elastase inhibition assay was followed with slight modifications. 0.1 μg/mL human neutrophil elastase was incubated with a range of concentrations of inhibitors for 5, 15, 30 and 60 minutes before substrate MeOSuc-AAPV-AMC of 100 μM final concentration was added. Enzyme kinetics were read on PheraSTAR plate reader and IC50 was calculated with the method described above.

[2] = Kinetic Solubility Test; format: physicochemical; details: for solubility kinetic at 24 h: aqueous buffer, kinetic from dmso stock, phosphate buffer pH 6.8, 24 h; for Kinetic solubility (pH 6.8): summary table
Description: The stock solution of each compound (10 μL; 10 mM in DMSO) was diluted with phosphate buffer solution (490 μL; 50 mM, pH 6.8). The resulting mixture was shaken for 24 h. Samples were then filtered.

[3] = Plasma Stability Assay; format: in vitro ADME, mouse; details: for % Remaining (mean): CD-1 Mouse Plasma; for portion intact in CD-1 mouse plasma: over 2 hours; for CD-1 Mouse Plasma % Remaining @ 2 hr: summary table
Description: Propantheline was used as the reference compound in this assay; all stock solutions were stored at −40° C. before use. • 2) Test system: CD-1 Mouse Plasma from a minimum of 20 male individuals were obtained from BioreclamationlVT (Catalog #: […]2-M; Batch #: MSE244515). EDTA-K2 was used as the anticoagulant. Procedure:
The frozen plasma was thawed in a water bath at 37° C. prior to the experiments. The plasma was centrifuged at 4000 rpm for 5 min and the clots were removed if necessary.
The pH was adjusted to 7.4±0.1 as necessary. An intermediate solution (1 mM) was prepared and a 100 μM dosing solution was prepared by diluting 10 μL of the intermediate solution with 90 μL 45% MeOH/H2O. Duplicate of test samples were made by mixing 98 μL of blank plasma with 2 μL of dosing solution (100 μM) to achieve the final concentration of 2 μM. Samples were incubated at 37° C. At each time point (0, 10, 30, 60, and 120 min), 400 μL of stop solution (consisting of 200 ng/mL tolbutamide and 20 ng/mL buspirone in 50% MeOH/CH3CN) was added to precipitate protein under thorough mixing. The sample plates were then centrifuged at 4,000 rpm for 10 min. An aliquot of supernatant (100 μL) was transferred from each well and mixed with 200 of μL ultrapure water. The samples were shaken at 800 rpm for about 10 min before LC-MS/MS analysis.
Data analysis: The % remaining of test compound after incubation in plasma was calculated using following equation: Remaining=100×(PAR at Tn/PAR at T0) where PAR is the peak area ratio of analyte versus internal standard (IS) and The appointed incubation time points are T0 (0 min), Tn (n=0, 10, 30, 60, 120 min).
LC-MS/MS condition: Each compound was analyzed by LC/MS using an ACE 5-phenyl 50×2.1 mm column (Part No. ACE-125-0502) with 0.1% formic acid in water and 0.1% formic acid in acetonitrile as the mobile phases. Tobultamide was used as the internal standard. Data collected were processed by Analyst 1.6.2 software and MultiQuant 3.0.2 software.

[4] = target: T1, human neutrophil elastase; assay: Elastase inhibition assay, purified human neutrophil elastase; format: biochemical; details: purified HNE
[5] = target: elastase in COPD patient sputum (Homo sapiens (Human), UniProt P08246); assay: Elastase inhibition assay in COPD patient sputum; format: biochemical
elastase in COPD patient sputum, sequence (P08246 30-267): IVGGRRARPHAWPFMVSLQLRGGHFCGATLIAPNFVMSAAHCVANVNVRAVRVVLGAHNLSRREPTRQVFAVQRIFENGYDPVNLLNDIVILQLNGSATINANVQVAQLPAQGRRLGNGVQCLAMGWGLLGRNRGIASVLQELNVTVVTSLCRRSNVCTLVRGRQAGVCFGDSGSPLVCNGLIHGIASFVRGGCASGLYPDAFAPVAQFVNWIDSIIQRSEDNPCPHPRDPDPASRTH
Description: (§1) Serially diluted compounds in DMSO were dispensed into a 384-well black opaque plate by Echo dispenser. 0.1 μg/mL human neutrophil elastase (EPC, Catalog# SE563, Owensville, Ms.) or human sputum diluted with assay buffer (100 mM HEPES, 500 mM NaCl, 0.02% Tween 20) was added into the 384-well plate, and was incubated with different compounds at different concentrations for 30 minutes at room temperature. The final concentration of DMSO in the reaction was 0.1%. Elastase substrate MeOSuc-AAPV-AMC (Bachem, Catalog #I-1270, Torrance, CA) of 100 μM final concentration was then added into the reaction system just before enzyme kinetics were read on PheraSTAR plate reader at excitation of 380 nm and emission of 460 nm with a 3-minutes interval for 30 minutes in total. Slope of fluorescence intensity vs. time representing the Vmax of enzyme activity was calculated with MARS software. % relative inhibition was calculated as: […]
(§2) IC50 was calculated based on the % relative inhibition curve using log(agonist) vs. response (three parameters) method with Prism software. All experiments were performed in triplicate for at least three independent times.
(§3) Human sputum was purchased from Discovery Life Sciences (Los Osos, CA). Human sputum was diluted 1:10 in volume with assay buffer (100 mM HEPES, 500 mM NaCl, 0.02% Tween 20) followed by vigorous vortexing. The 1:10 diluted human sputum was further diluted into 1:30, 1:90, 1:270, 1:810, and 1:2430. The elastase concentration was determined by elastase inhibition assay as described above. Specifically, a series of standards of human neutrophil elastase (starting at 2 μg/mL and further diluted 1:2 in volume) were prepared in the assay buffer. The samples and standards were plated in a 384-well black solid bottom plate; the substrate MeOSuc-AAPV-AMC of 100 μM final concentration was then added into the reaction system just before enzyme kinetics were read on PheraSTAR plate reader as mentioned above. The slope of enzymatic kinetic reading was calculated by MARS software. The elastase levels of the human sputum were calculated based on the standard curve.

[6] = target: elastase in CF patient sputum (Homo sapiens (Human), UniProt P08246); assay: Elastase inhibition assay in CF patient sputum; format: biochemical; details: for IC50 / LipE: CF sputum; for inhibitory activity in patient sputum versus purified HNE (in words): sputum samples of CF and COPD patients
elastase in CF patient sputum, sequence (P08246 30-267): as above
Description: as §1, §2, §3

[7] = target: T1, human neutrophil elastase; assay: Elastase inhibition assay, purified human neutrophil elastase; format: biochemical; details: for LipE: Purified NHE; for IC50: purified HNE, read-out: IC50
Description: as §1, with “Elastase substrate MeOSuc-AAPV-AMC (Bachem, Catalog #I-1270, Torrance, CA) of 100 μM final concentration was then added into the reaction system just before enzyme kinetics were read on PheraSTAR plate reader at excitation of 380 nm and emission of 460 nm with a 3-minutes interval for 30 minutes in total.” left out
as §2

[8] = 5 min incubation with inhibitor
[9] = 15 min incubation with inhibitor
[10] = 30 min incubation with inhibitor
[11] = 60 min incubation with inhibitor

SMILES	IC50 [1, 8] [pM]	IC50 [1, 9] [pM]	IC50 [1, 10] [pM]	IC50 [1, 11] [pM]	solubility kinetic at 24 h [2]	Kinetic solubility (pH 6.8) [2] [μm]	% Remaining (mean) ([3]; 0 min, 2 μM, 37° C.) [%]	% Remaining (mean) ([3]; 10 min) [%]	% Remaining (mean) ([3]; 30 min) [%]	% Remaining (mean) ([3]; 60 min) [%]	% Remaining (mean) ([3]; 120 min) [%]	portion intact in CD-1 mouse plasma [3] [%]	CD-1 Mouse Plasma % Remaining @ 2 hr [3] [%]	Ki [4] [pM]	IC50 [5] [pM]	LipE [5]	IC50 [6] [pM]	LipE [6]	inhibitory activity in patient sputum versus purified HNE (in words) [6]	LipE [7]	further results
CC(C)[C@H](NC(=O)[C@@H]1CCCN1C(=O)[C@@H](NC(=O)c1ccc(C(=O)NS(=O)(=O)c2ccc(Cl)cc2)cc1)C(C)C)B(O)O [Compound 51, (1-((S)-1-((4-(((4-chlorophenyl)sulfonyl)carbamoyl)benzoyl)-L-valyl)pyrrolidine-2-carboxamido)-2-methylpropyl)boronic acid]	27	30	37	26	> 127 µg/mL and > 200 µM	>200	100.0	90.0	79.4	84.1	90.3	90	90.3	34	22.3 ± 0.6	7.46	96 ± 2	6.83	retained much of their inhibitory activities	7.33	inhibitory activity against HNE (in words) [7]: substantially enhanced potency; inhibitory activity against HNE (in words) ([7]; listed as mCBK 320): highly potent; IC50 [7]: 30 pM
CC(C)[C@H](NC(=O)[C@@H]1CCCN1C(=O)[C@@H](NC(=O)c1ccc(C(=O)NCC(=O)O)cc1)C(C)C)B(O)O [Compound 52, (4-(((2S)-1-((2S)-2-((1-borono-2-methylpropyl)carbamoyl)pyrrolidin-1-yl)-3-methyl-1-oxobutan-2-yl)carbamoyl)benzoyl)glycine]	4	4.7	4.2	4.2	> 104 µg/mL and > 200 µM	>200	100.0	116.1	104.8	96.4	79.2	79	79.2	3.7	12.7 ± 0.8	10.2	43 ± 2	9.62	retained much of their inhibitory activities	10.1	change of IC50 with increasing incubation times (in words) ([1]; between 5-60 minutes): remain unchanged; IC50 [7]: 15 pM
